≈ marks a conversion by molar mass, not a printed value. Entries after “also recorded” stand apart in the source; their conditions may differ.
Tests used:
[1] = Dynamic vapor sorption (DVS) analysis, hygroscopicity; type: physicochemical; settings: for overall water uptake (DVS): 5-95% RH; for solid form of post-DVS specimen (XRPD): after DVS 5-95-5% RH
Procedure: (§1) DVS analysis was carried out using a TA Instruments Q5000 Dynamic Vapor Sorption analyzer. The instrument was calibrated with standard weights and a sodium bromide standard for humidity. Approximately 10-25 mg of sample was loaded into a metal-coated quartz pan for analysis. The sample was analyzed at 25° C. with a maximum equilibration time of one hour in 10% relative humidity (RH) steps from 5 to 95% RH (adsorption cycle) and from 95 to 5% RH (desorption cycle). The movement from one step to the next occurred either after satisfying the equilibrium criterion of 0.01% weight change or, if the equilibrium criterion was not met, after one hour. The percent weight change values were calculated using Microsoft Excel®.
as §1, with “Dynamic Vapor Sorption (DVS)” for “DVS”, “is” for “was”, “is” for “were”, “Excel.” for “Excel®.”

[2] = system: Psilocybin Induced Head Twitches in Mice; test: Psilocybin-induced head-twitch response in mice, 5-HT2A antagonist given i.v. after psilocybin; type: in vivo, C57BL/6J mice; settings: for Result (suppression of psilocybin-induced head twitch): 5HT2A antagonist i.v. at T=7 min, summary of Examples 13-21; for effect on psilocybin-induced head twitch (summary of Examples 13-21): administered after psilocybin, compared to vehicle-treated mice, dose not given; for suppression of psilocybin-induced head-twitch response: monitored until 40 min
Excerpt: The head-shake response is elicited by a wide variety of known hallucinogens such as LSD, psilocybin, psilocin, N,N-dimethyltryptamine (DMT), and mescaline as well as serotonin-releasing agents and direct 5-HT2 agonists. […] Later studies have confirmed 5-HT2A receptors are the primary, direct mediators of the response and that the headshake response in rats is essentially the same as head-twitches in mice, at least in regards to similarity in appearance and 5-HT2A receptor dependence.
Male C57BL/6J mice (approximately 25 g) were group housed. Animals were maintained under a 12 h light/dark cycle, at 23° C. with humidity controlled.
Psilocybin was formulated in saline at a concentration of 0.4 mg/mL to give a dose of 2 mg/kg when administered i.p. in a 5 mL/kg dosing volume.
(§2) At T=−60 min, C57BL/6J mice were individually housed into transparent observation cages with bedding removed and left to habituate. At T=−3 min, mice were placed into heated cages at 40° C. At T=0 h, groups of 3 mice were dosed intraperitoneally with psilocybin (2 mg/kg). Following dosing, mice were replaced into the heated cages and head-twitch responses continuously scored for 7 min. After 7 min, mice were intravenously dosed via the lateral tail vein with either vehicle 1 (saline) or volinanserin 1 mg/kg in 5 mL/kg dosing volumes. Mice were replaced into the observation cages and head twitch behavior were monitored until 40 min after agonist dosing. Cumulative head-twitches were measured every 2 minutes until 40 minutes after agonist dosing.
as §2, with “min. […]” for “min. After 7 min, mice were intravenously dosed via the lateral tail vein with either vehicle 1 (saline) or volinanserin 1 mg/kg in 5 mL/kg dosing volumes.”, “behavior was” for “behavior were”, “Cumulative head-twitch behavior was” for “Cumulative head-twitches were”
as §2, with “min. […]” for “min. After 7 min, mice were intravenously dosed via the lateral tail vein with either vehicle 1 (saline) or volinanserin 1 mg/kg in 5 mL/kg dosing volumes.”, “behavior was” for “behavior were”, “Cumulative head-twitch behavior was” for “Cumulative head-twitches were”
as §2, with “min. […]” for “min. After 7 min, mice were intravenously dosed via the lateral tail vein with either vehicle 1 (saline) or volinanserin 1 mg/kg in 5 mL/kg dosing volumes.”, “behavior was” for “behavior were”, “Cumulative head-twitch behavior was” for “Cumulative head-twitches were”
as §2, with “min. […]” for “min. After 7 min, mice were intravenously dosed via the lateral tail vein with either vehicle 1 (saline) or volinanserin 1 mg/kg in 5 mL/kg dosing volumes.”, “behavior was” for “behavior were”, “Cumulative head-twitch behavior was” for “Cumulative head-twitches were”

[3] = Hygroscopicity test in relative humidity (RH) jars; type: physicochemical
Procedure: Solids deliquesced within approx. 1 hour of exposure to elevated relative humidity. The sample was capped and placed in a freezer for storage.

[4] = Estimated aqueous solubility of O-acetyl psilocin salts (aliquot addition method); settings: bounds printed as 'Small particles present at ≤ x mg/mL'
Procedure: Whether dissolution had occurred was judged by visual inspection after addition of each solvent aliquot. […] Solubility numbers were calculated by dividing the weight of the sample by the total amount of solvent used to dissolve the sample. […] The solubility number is expressed as “greater than or equal to” if dissolution occurred on addition of the first solvent aliquot.

[5] = Estimated solubilities of psilocybin (solvent aliquot addition, visual inspection); type: physicochemical; settings: room temperature
Excerpt: Solubilities of psilocybin in a few solvents were estimated.

[6] = C57BL/6J mice, psilocybin 2 mg/kg i.p. at T=0, head twitches scored to 40 min
[7] = antagonist 1 mg/kg i.v. 7 min after psilocybin 2 mg/kg i.p.
[8] = antagonist 4 mg/kg i.v. 7 min after psilocybin 2 mg/kg i.p.

CC(=O)Oc1cccc2[nH]cc(CCN(C)C)c12.O=C(O)/C=C/C(=O)O [O-acetylpsilocin-fumarate Form A, O-acetylpsilocin-fumarate]
overall water uptake (DVS) [1]: approx. 0.1%
hygroscopicity (DVS), in words ([1]; whole RH range (5-95% RH)): non-hygroscopic

N#Cc1c[nH]c2c(C(=O)N3CCN(CCc4ccc(F)cc4)CC3)cccc12 [pruvanserin]
Result (suppression of psilocybin-induced head twitch) [2, 6]: Full suppression of head twitch
effect on psilocybin-induced head twitch (summary of Examples 13-21) [2]: full ending
suppression of psilocybin-induced head-twitch response [2, 7]: completely suppressed

CC(=O)Oc1cccc2[nH]cc(CCN(C)C)c12.O=C(O)C(O)C(O)C(=O)O [L-tartrate salt, Form A, O-Acetyl Psilocin Tartrate]
hygroscopicity (DVS), in words ([1]; 5-85% RH): non-hygroscopic
hydrate formation on DVS ([1]; above 85% RH): consistent with hydrate formation
water uptake (DVS) ([1]; above 85% RH): approx. 6%
hydrate formation on DVS ([1]; above 85% RH, listed as Tartrate A): possible hydrate formation
solid form of post-DVS specimen (XRPD) [1]: consistent with Form A by XRPD analysis and exhibited additional diffraction peaks

CC(=O)Oc1cccc2[nH]cc(CCN(C)C)c12.O=C(O)C(O)C(O)C(=O)O [L-tartrate, Form A]
hygroscopicity ([1]; 5-85% RH, DVS): non-hygroscopic
hydrate formation (DVS) ([1]; DVS, at high RH): resulting in hydrate
Water uptake ([1]; above 85% RH, DVS): ~6%
hygroscopicity ([1]; above 85% RH, DVS): hygroscopic

CC(=O)Oc1cccc2[nH]cc(CCN(C)C)c12.CS(=O)(=O)O [mesylate salt, Form A, O-Acetyl Psilocin Mesylate]
hygroscopicity (DVS), in words ([1]; 5-55% RH): non-hygroscopic
water uptake (DVS) ([1]; above 55% RH): 40%
solid form of post-DVS specimen (XRPD) [1]: liquid

CC(=O)Oc1cccc2[nH]cc(CCN(C)C)c12.O=C(O)C[C@H](O)C(=O)O [L-malate salt, Form B, O-Acetyl Psilocin Malate]
hygroscopicity (DVS), in words ([1]; 5-85% RH): non-hygroscopic
hydrate formation on DVS ([1]; above 85% RH): no hydrate formation occurred
hydrate formation on DVS ([1]; above 85% RH, listed as Malate B): possible hydrate formation
water uptake (DVS) ([1]; above 85% RH, unit not given): approx. 4.500
solid form of post-DVS specimen (XRPD) [1]: consistent with Form B

O=c1[nH]c2ccccc2n1CCN1CCN(c2cccc(C(F)(F)F)c2)CC1 [flibanserin]
Result (suppression of psilocybin-induced head twitch) [2, 6]: Partial suppression of head twitch
effect on psilocybin-induced head twitch (summary of Examples 13-21) [2]: partial suppression
suppression of psilocybin-induced head-twitch response [2, 7]: partially suppressed
suppression of psilocybin-induced head-twitch response [2, 8]: partially suppressed

CC(=O)Oc1cccc2[nH]cc(CCN(C)C)c12.Cl [O-acetyl psilocin hydrochloride]
time to deliquescence ([3]; open vial in 75% RH jar): ≤ 1 h

COc1ccc(NC(=O)Nc2ccc(F)cc2F)cc1-c1c(Br)cnn1C [nelotanserin]
Result (suppression of psilocybin-induced head twitch) [2, 6]: Partial suppression of head twitch,
Result (suppression of psilocybin-induced head twitch) at high dose ([2]; C57BL/6J mice, psilocybin 2 mg/kg i.p. at T=0, antagonist at high dose (nelotanserin 4 mg/kg i.v.) at T=7 min, head twitches scored to 40 min): full suppression at high dose
effect on psilocybin-induced head twitch (summary of Examples 13-21) [2]: partial suppression
suppression of psilocybin-induced head-twitch response [2, 7]: partially suppressed
suppression of psilocybin-induced head-twitch response [2, 8]: completely suppressed; also recorded: completed suppressed

CC(=O)Oc1cccc2[nH]cc(CCN(C)C)c12.O=P(O)(O)O [phosphate salt (Forms A+B), O-acetyl psilocin phosphate]
hygroscopicity by RH jars, in words ([3]; RH jars): low

O=C(c1ccc(F)cc1)C1CCN(CCn2c(=O)[nH]c3ccccc3c2=O)CC1 [ketanserin]
suppression of psilocybin-induced head-twitch response ([2]; antagonist 2 mg/kg i.v. 7 min after psilocybin 2 mg/kg i.p.): completely suppressed

Maleate
Water solubility [4]: >50000 µg/mL

CN(C)CCc1c[nH]c2cccc(OP(=O)(O)O)c12 [psilocybin]
solubility ([5]; organic solvent or mixture, thermodynamic from solid, 1,4-dioxane): < 1000 µg/mL
solubility ([5]; organic solvent or mixture, thermodynamic from solid, 2-propanol (2-PrOH)): < 1000 µg/mL
solubility ([5]; organic solvent or mixture, thermodynamic from solid, Acetone): < 1000 µg/mL
solubility ([5]; organic solvent or mixture, thermodynamic from solid, Acetonitrile (ACN)): < 1000 µg/mL
solubility ([5]; organic solvent or mixture, thermodynamic from solid, Dichloromethane (DCM)): < 1000 µg/mL
solubility ([5]; organic solvent or mixture, thermodynamic from solid, Ethanol (EtOH)): < 1000 µg/mL
solubility ([5]; organic solvent or mixture, thermodynamic from solid, Ethyl acetate (EtOAc)): < 1000 µg/mL
solubility ([5]; organic solvent or mixture, thermodynamic from solid, Methanol (MeOH)): 11000 µg/mL (≈ 38.7 mM)
solubility ([5]; organic solvent or mixture, thermodynamic from solid, Tetrahydrofuran (THF)): < 1000 µg/mL
solubility ([5]; thermodynamic from solid, Water): 4000 µg/mL (≈ 14.1 mM)
solid form of post-DVS specimen (XRPD) [1]: converted to a hydrate Form B; also recorded: Crystalline Form B (hydrate)

COc1cccc([C@H](O)C2CCN(CCc3ccc(F)cc3)CC2)c1OC [volinanserin]
Result (suppression of psilocybin-induced head twitch) [2, 6]: Full suppression of head twitch
effect on psilocybin-induced head twitch (summary of Examples 13-21) [2]: full ending
suppression of psilocybin-induced head-twitch response [2, 7]: completely suppressed

Cc1nc2sccn2c(=O)c1CCN1CCC(=C(c2ccc(F)cc2)c2ccc(F)cc2)CC1 [ritanserin]
Result (suppression of psilocybin-induced head twitch) [2, 6]: Full suppression of head twitch
effect on psilocybin-induced head twitch (summary of Examples 13-21) [2]: full ending
suppression of psilocybin-induced head-twitch response [2, 7]: completely suppressed

CC(=O)Oc1cccc2[nH]cc(CCN(C)C)c12.O=C(O)/C=C\C(=O)O [maleate salt, Form A, O-acetyl psilocin maleate]
overall water uptake (DVS) [1]: approx. 0.8%
solid form of post-DVS specimen (XRPD) [1]: consistent with Form A
hygroscopicity (DVS), in words ([1]; whole RH range (5-95% RH)): non-hygroscopic
hygroscopicity (DVS), in words ([1]; whole RH range (5-95% RH), listed as maleate salt): minimal water sorption

Reference: patent publication US11945832B2, “Psilocybin and O-acetylpsilocin, salts and solid state forms thereof” (Terran Biosciences Inc., priority 2021, dated 2024)
